US20230310428A1, “EGFR INHIBITOR AND PREPARATION METHOD AND USE THEREOF” (HONGYUN BIOTECH CO., LTD., priority 2020, published 2023)

What was measured:
Test in all cases: Growth inhibitory activity of compounds on BaF3 cell lines stably transfected with kinase (MTS, 48 h)
Type in all cases: cell-based
[1] = biological target: T1, various mutants of kinase EGFR (BaF3 cell lines stably transfected with kinase) (Homo sapiens, UniProt P00533, L858R); conditions: BaF3 cells stably transfected with EGFR L858R, read-out: IC50, growth inhibition, L858R
T1 construct: expressed in transfected cells; host or cells: BaF3
Method: (§1) The activity of compounds against various mutants of kinase EGFR was evaluated by their effect of inhibiting growth of BaF3 cell lines stably transfected with kinase. The specific test method was given as follows:
(§2) 1) Culture medium: DMEM (Dulbecco’s modified eagle medium) or RPMI 1640 (containing 10% fetal bovine serum, 100 µg/mL ampicillin, 100 µg/mL streptomycin).
(§3) 2) Reagent: MTS reaction solution (containing 2 mg/mL of MTS [3-(4,5-dimethylthiazol-2-yl)-5-(3-carboxymethoxyphenyl)-2-(4-sulfophenyl)-2H-tetrazoliu m, inner Salt]; 100 µg/mL of PES ([…])).
(§4) 3) Compound test: cells were incubated into a 96-well culture plate, the volume of cytosol was 90 µL, and then 10 µL of the compound at each gradient concentration was added. That is, the highest concentration was 10 µM, which was diluted stepwise by ⅓, and 8 concentration points were set in total; 0.1% DMSO (dimethyl sulfoxide) was contained in the system. The cell plate with uniformly mixed compound was cultured in a cell culture incubator (37° C.; 5% CO2) for 48 h, then 20 µL of MTS reaction solution was added, uniformly mixed and incubated in the cell culture incubator (37° C.; 5% CO2) for 1-4 h. OD values at 490 nm were measured by a microplate reader (VARIOSKAN FLASH, Thermo). Two parallels were set in each group of experiments, with 0.1% (a final concentration) DMSO as a negative control, and a culture medium without cells and compounds as a blank control. The cell growth inhibition rate was calculated by the following formula: […]
(§5) 4) IC50 calculation: The semi-inhibitory concentration of the compounds acting on cells was calculated using GradPad Prism 5 software according to the measured cell growth inhibition rate.

[2] = biological target: T2, various mutants of kinase EGFR (BaF3 cell lines stably transfected with kinase) (Homo sapiens, UniProt P00533, T790M, form not given); conditions: BaF3 cells stably transfected with EGFR Δ19Del/T790M, read-out: IC50, growth inhibition, Δ19Del/T790M
T2 construct: other: BaF3 cells stably transfected with EGFR Δ19Del/T790M; MTS, 48 h; other: BaF3 cell line stably transfected with EGFR Δ19Del/T790M; MTS, 48
Method: as §1, §2, §3, §4, §5

[3] = biological target: T3, various mutants of kinase EGFR (BaF3 cell lines stably transfected with kinase) (Homo sapiens, UniProt P00533, C797S/L858R/T790M); conditions: BaF3 cells stably transfected with EGFR L858R/T790M/C797S, read-out: IC50, growth inhibition, L858R/T790M/C797S
T3 construct: expressed in transfected cells; host or cells: BaF3
Method: as §1, §2, §3, §4, §5

[4] = biological target: T4, various mutants of kinase EGFR (BaF3 cell lines stably transfected with kinase) (Homo sapiens, UniProt P00533, T790M/C797S, form not given); conditions: BaF3 cells stably transfected with EGFR Δ19Del/T790M/C797S, read-out: IC50, growth inhibition, Δ19Del/T790M/C797S
T4 construct: other: BaF3 cells stably transfected with EGFR Δ19Del/T790M/C797S; MTS, 48; other: BaF3 cell line stably transfected with EGFR Δ19Del/T790M/C7
Method: as §1, §2, §3, §4, §5

[5] = biological target: T5, various mutants of kinase EGFR (BaF3 cell lines stably transfected with kinase) (Homo sapiens, UniProt P00533); conditions: BaF3 cells stably transfected with EGFR Δ19Del, read-out: IC50, growth inhibition, Δ19Del
T5 construct: other: BaF3 cells stably transfected with EGFR Δ19Del; MTS, 48 h; other: BaF3 cell line stably transfected with EGFR Δ19Del
Method: as §1, §2, §3, §4, §5

[6] = biological target: T6, various mutants of kinase EGFR (BaF3 cell lines stably transfected with kinase) (Homo sapiens, UniProt P00533, L858R/T790M); conditions: BaF3 cells stably transfected with EGFR L858R/T790M, read-out: IC50, growth inhibition, L858R/T790M
T6 construct: expressed in transfected cells; host or cells: BaF3
Method: as §1, §2, §3, §4, §5

T2 sequence (P00533 with tags, fused parts or gaps DEL746-750/T790M, form open): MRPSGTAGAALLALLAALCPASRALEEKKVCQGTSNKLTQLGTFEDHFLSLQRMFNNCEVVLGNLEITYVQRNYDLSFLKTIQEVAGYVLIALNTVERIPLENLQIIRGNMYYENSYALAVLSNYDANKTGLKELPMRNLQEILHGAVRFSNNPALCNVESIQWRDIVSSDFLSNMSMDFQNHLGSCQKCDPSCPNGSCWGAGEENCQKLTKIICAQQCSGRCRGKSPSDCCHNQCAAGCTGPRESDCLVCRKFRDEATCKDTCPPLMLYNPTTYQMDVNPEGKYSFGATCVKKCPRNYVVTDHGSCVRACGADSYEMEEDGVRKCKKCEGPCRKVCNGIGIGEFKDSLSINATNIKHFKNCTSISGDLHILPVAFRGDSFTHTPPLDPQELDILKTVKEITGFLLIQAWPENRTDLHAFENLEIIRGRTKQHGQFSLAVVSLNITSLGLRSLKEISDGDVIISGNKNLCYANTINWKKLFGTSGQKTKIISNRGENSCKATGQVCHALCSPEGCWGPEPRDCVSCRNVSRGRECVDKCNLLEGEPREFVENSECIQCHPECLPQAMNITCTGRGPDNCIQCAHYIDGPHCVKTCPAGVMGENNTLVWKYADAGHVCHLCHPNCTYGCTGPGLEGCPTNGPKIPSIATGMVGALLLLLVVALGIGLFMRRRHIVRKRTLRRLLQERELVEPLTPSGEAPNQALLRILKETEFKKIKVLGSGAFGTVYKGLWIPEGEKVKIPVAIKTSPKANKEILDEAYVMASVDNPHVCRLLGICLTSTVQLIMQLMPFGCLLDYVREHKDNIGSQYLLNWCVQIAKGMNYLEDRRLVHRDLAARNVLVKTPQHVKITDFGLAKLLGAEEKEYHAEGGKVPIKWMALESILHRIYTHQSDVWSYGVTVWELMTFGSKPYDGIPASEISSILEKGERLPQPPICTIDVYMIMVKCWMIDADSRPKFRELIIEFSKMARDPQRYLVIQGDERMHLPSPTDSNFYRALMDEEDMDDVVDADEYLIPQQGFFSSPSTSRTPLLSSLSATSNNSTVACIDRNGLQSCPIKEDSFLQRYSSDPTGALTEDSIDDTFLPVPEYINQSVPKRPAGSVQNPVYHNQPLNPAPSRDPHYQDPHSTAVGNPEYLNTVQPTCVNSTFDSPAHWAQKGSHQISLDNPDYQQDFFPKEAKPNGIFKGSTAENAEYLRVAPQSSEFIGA
T5 sequence (P00533 with tags, fused parts or gaps DEL746-750): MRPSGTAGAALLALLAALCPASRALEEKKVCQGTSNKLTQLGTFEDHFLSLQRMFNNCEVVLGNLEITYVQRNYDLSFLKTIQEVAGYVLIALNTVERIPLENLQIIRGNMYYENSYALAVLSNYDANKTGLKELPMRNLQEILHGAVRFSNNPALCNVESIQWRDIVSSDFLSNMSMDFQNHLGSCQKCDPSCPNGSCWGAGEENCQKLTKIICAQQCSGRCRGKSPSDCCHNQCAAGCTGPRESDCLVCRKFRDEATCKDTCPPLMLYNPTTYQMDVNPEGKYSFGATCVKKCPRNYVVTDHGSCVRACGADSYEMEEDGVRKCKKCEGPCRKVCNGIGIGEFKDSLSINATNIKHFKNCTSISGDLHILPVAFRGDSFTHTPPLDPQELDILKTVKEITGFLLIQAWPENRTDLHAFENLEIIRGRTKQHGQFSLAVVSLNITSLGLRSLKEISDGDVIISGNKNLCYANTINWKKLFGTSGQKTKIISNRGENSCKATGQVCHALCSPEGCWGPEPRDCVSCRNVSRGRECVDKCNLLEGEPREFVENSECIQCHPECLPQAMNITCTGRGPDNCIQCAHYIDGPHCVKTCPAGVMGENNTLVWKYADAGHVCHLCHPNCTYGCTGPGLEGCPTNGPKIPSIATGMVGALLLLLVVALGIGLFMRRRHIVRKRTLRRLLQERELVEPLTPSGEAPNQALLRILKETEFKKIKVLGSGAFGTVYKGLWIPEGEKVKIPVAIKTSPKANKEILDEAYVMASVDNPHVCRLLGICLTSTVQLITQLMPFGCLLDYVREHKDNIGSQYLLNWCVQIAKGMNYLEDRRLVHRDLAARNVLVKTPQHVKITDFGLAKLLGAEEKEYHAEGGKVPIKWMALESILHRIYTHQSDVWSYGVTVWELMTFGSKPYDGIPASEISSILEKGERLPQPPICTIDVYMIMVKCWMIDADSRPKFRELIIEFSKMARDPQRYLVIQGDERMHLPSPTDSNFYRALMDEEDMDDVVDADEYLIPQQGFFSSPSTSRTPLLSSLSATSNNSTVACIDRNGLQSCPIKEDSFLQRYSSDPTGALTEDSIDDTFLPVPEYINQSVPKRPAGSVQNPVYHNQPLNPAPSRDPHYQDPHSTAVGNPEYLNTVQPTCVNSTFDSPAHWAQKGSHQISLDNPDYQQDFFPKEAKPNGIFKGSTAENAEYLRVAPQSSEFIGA
T3 sequence (P00533 25-1210 T790M/C797S/L858R): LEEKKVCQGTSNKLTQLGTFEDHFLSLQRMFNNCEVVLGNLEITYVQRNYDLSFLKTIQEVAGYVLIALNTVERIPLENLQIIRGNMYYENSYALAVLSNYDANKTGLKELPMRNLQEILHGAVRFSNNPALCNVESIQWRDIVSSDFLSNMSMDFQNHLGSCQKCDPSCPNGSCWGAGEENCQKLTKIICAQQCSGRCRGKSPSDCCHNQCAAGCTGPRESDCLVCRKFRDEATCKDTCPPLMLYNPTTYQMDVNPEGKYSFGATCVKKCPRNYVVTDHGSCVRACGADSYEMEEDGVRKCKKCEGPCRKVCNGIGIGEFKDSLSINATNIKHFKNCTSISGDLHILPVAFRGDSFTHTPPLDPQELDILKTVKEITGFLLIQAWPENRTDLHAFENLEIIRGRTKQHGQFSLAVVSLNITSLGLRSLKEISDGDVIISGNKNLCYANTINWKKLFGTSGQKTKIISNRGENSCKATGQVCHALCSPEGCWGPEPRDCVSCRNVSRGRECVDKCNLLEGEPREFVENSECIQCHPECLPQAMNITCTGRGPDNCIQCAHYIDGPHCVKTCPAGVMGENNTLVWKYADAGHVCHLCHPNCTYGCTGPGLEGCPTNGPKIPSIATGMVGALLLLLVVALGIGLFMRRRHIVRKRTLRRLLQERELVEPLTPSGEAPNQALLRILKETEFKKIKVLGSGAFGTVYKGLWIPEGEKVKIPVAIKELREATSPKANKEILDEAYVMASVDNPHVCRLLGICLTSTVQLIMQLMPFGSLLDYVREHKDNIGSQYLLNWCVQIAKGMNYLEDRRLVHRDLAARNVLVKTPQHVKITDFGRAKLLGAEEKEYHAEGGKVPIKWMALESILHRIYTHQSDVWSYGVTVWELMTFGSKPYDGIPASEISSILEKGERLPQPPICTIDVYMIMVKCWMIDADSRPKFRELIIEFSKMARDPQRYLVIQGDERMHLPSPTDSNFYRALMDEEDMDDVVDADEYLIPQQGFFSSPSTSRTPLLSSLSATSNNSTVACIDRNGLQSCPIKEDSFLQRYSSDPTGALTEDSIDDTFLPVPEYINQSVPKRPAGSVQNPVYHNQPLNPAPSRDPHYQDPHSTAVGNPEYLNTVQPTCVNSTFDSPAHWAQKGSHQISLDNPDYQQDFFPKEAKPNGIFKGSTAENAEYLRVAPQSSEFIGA
T1 sequence (P00533 25-1210 L858R): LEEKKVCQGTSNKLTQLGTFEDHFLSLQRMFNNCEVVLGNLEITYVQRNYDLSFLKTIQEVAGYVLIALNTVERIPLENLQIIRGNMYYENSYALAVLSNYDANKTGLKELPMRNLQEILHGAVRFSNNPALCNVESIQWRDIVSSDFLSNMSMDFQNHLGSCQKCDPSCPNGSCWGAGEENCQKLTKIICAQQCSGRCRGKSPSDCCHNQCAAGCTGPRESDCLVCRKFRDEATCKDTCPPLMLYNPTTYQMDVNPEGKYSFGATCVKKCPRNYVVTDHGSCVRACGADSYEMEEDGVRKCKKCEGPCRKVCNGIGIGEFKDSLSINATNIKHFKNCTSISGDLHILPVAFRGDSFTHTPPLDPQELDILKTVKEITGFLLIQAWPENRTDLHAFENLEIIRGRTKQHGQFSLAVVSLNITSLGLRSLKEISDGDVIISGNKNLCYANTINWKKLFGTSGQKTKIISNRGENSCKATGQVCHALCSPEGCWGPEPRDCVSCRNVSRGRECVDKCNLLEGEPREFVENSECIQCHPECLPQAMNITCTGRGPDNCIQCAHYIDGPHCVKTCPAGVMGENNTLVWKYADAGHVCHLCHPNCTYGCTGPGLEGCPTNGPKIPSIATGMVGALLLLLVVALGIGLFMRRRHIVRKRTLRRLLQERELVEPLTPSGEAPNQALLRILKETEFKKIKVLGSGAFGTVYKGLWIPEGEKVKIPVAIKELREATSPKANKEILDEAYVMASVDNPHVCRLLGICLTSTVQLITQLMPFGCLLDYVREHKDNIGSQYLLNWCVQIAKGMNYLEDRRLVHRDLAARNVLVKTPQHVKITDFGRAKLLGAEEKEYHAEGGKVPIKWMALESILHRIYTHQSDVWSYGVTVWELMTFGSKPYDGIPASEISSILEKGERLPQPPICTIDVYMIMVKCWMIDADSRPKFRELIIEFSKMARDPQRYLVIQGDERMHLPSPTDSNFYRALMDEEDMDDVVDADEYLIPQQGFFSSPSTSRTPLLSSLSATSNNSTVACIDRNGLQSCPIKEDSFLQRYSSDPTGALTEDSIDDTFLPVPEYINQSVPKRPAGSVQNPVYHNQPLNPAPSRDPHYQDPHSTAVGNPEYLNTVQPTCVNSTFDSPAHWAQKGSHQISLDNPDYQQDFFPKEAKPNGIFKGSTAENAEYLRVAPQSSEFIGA

Structure (SMILES)	IC50 [1] [nM]	IC50 [2] [nM]	IC50 [3] [nM]	IC50 [4] [nM]	IC50 [5] [nM]	IC50 [6] [nM]
CN1CCN(C2CCN(c3cccc(Nc4ncc(Br)c(Nc5ccc6nccnc6c5N(C)S(C)(=O)=O)n4)c3)CC2)CC1 [Compound I-78]	50 to 500	50 to 500	≤ 50	50 to 500	50 to 500	≤ 50
CN1CCN(C(=O)c2cccc(Nc3ncc(Br)c(Nc4ccc5nccnc5c4N(C)S(C)(=O)=O)n3)c2)CC1 [Compound I-80]	50 to 500	50 to 500	50 to 500	500 to 2500	50 to 500	≤ 50
COc1ccc(C(=O)N2CCN(C)CC2)cc1Nc1ncc(Br)c(Nc2ccc3nccnc3c2N(C)S(C)(=O)=O)n1 [Compound I-81]	500 to 2500	50 to 500	50 to 500	500 to 2500	50 to 500	50 to 500
CN1CCN(Cc2cc(Nc3ncc(Br)c(Nc4ccc5nccnc5c4N(C)S(C)(=O)=O)n3)cc(C(F)(F)F)c2)CC1 [Compound I-82]	50 to 500	50 to 500	50 to 500	50 to 500	50 to 500	≤ 50
COc1ccc(CN2CCN(C)CC2)cc1Nc1ncc(Br)c(Nc2ccc3nccnc3c2N(C)S(C)(=O)=O)n1 [Compound I-83]	50 to 500	500 to 2500	500 to 2500	500 to 2500	50 to 500	50 to 500
CN1CCN(Cc2cccc(Nc3ncc(Br)c(Nc4ccc5nccnc5c4N(C)S(C)(=O)=O)n3)c2)CC1 [Compound I-84]	≤ 50	50 to 500	50 to 500	50 to 500	50 to 500	≤ 50
COc1ccc(NC(=O)CN(C)C)cc1Nc1ncc(Br)c(Nc2ccc3nccnc3c2N(C)S(C)(=O)=O)n1 [Compound I-85]	50 to 500	50 to 500	50 to 500	50 to 500	50 to 500	50 to 500
CN1CCc2cc(F)c(Nc3ncc(Br)c(Nc4ccc5nccnc5c4N(C)S(C)(=O)=O)n3)cc2C1 [Compound I-87]	≤ 50	50 to 500	≤ 50	≤ 50	≤ 50	50 to 500
COc1cc2c(cc1Nc1ncc(Br)c(Nc3ccc4nccnc4c3N(C)S(C)(=O)=O)n1)CN(C)CC2 [Compound I-89]	50 to 500	50 to 500	50 to 500	500 to 2500	500 to 2500	50 to 500
CN1CCc2cc(OC(F)(F)F)c(Nc3ncc(Br)c(Nc4ccc5nccnc5c4N(C)S(C)(=O)=O)n3)cc2C1 [Compound I-90]	500 to 2500	500 to 2500	50 to 500	500 to 2500	50 to 500	500 to 2500
Cc1cc2c(cc1Nc1ncc(Br)c(Nc3ccc4nccnc4c3N(C)S(C)(=O)=O)n1)CN(C)CC2 [Compound I-92]	50 to 500	50 to 500	≤ 50	50 to 500	50 to 500	50 to 500
CC1CN(C)CCc2ccc(Nc3ncc(Br)c(Nc4ccc5nccnc5c4N(C)S(C)(=O)=O)n3)cc21 (stereo not drawn) [Compound I-93]	≤ 50	≤ 50	≤ 50	≤ 50	≤ 50	≤ 50
CCN(c1c(Nc2nc(Nc3cc(C)c(N4CCC(N5CCN(C)CC5)CC4)cc3OC)ncc2Br)ccc2nccnc12)S(C)(=O)=O [Compound I-94]	≤ 50	≤ 50	≤ 50	≤ 50	≤ 50	≤ 50
CCc1cc(Nc2ncc(Br)c(Nc3ccc4nccnc4c3N(CC)S(C)(=O)=O)n2)c(OC)cc1N1CCC(N2CCN(C)CC2)CC1 [Compound I-95]	≤ 50	≤ 50	≤ 50	≤ 50	≤ 50	≤ 50
